We go through 11 molecules from ChEMBL document CHEMBL4673302, “Efficient synthesis and antitumor evaluation of 4-aminomethyl-N-arylpyrazoles: Discovery of potent and selective agents for ovarian cancer” (Bioorg Med Chem, 2021).

Molecules are shown by their SMILES.

The test system of one series is OVCAR-3. Put plainly: Anticancer activity against human OVCAR-3 cells assessed as cell growth inhibition measured after 48 hrs by sulforhodamine B assay. It counts as functional. In general terms: The SRB assay estimates cell density from bound dye.
Another series relates to NCI-H460. The experiment in a line: Anticancer activity against human NCI-H460 cells assessed as cell growth inhibition measured after 48 hrs by sulforhodamine B assay. It counts as functional.
For another series, the system named is MCF7. The experiment in a line: Anticancer activity against human MCF7 cells assessed as cell growth inhibition measured after 48 hrs by sulforhodamine B assay. It counts as functional.
The next series concerns PC-3. Put plainly: Anticancer activity against human PC-3 cells assessed as cell growth inhibition measured after 48 hrs by sulforhodamine B assay. It counts as functional.
For the next series, the system named is HT-29. Put plainly: Anticancer activity against human HT-29 cells assessed as cell growth inhibition measured after 48 hrs by sulforhodamine B assay. The format is functional.
The test system of another series is U-251. The experiment in a line: Anticancer activity against human U-251 cells assessed as cell growth inhibition measured after 48 hrs by sulforhodamine B assay. The format is functional.
The next series has as its system K562. Put plainly: Anticancer activity against human K562 cells assessed as cell growth inhibition measured after 48 hrs by sulforhodamine B assay. The format is functional.
In the next series the test system is 786-0. The experiment in a line: Anticancer activity against human 786-0 cells assessed as cell growth inhibition measured after 48 hrs by sulforhodamine B assay. The format is functional.
A short description of series [1]: (§1) Cytotoxicity against human HaCaT cells assessed as cell growth inhibition measured after 48 hrs by sulforhodamine B assay. The format is cell-based. The following applies: HaCaT cells.
A further series deals with HaCaT. The series is described as §1. It counts as cell-based. The following applies: hacat, 48 h.

Take `Cc1ccc(-c2c(CNC(C)(C)C)c(C(=O)O)nn2-c2ccc(Cl)cc2)cc1`: the concentration for 50% growth inhibition (GI50) (usually the concentration giving 50% growth inhibition) with OVCAR-3 (Homo sapiens, OVCAR-3, 48 h) was more than 630 µM; with NCI-H460 (Homo sapiens, NCI-H460, 48 h) it was more than 630 µM; in the series on MCF7 (Homo sapiens, MCF7, 48 h), more than 630 µM; in the series with PC-3 (Homo sapiens, PC-3, 48 h) it was more than 630 µM; in the series with HT-29 (Homo sapiens, HT-29, 48 h) it was more than 630 µM; in the series on U-251 (Homo sapiens, U-251, 48 h) it was more than 630 µM. Moreover, the concentration for 50% growth inhibition (GI50) with K562 (Homo sapiens, K562, 48 h) is more than 630 µM; with 786-0 (Homo sapiens, 786-0, 48 h), more than 630 µM. The GI50 at 48 h in series [1] is more than 630 µM.
`CC(C)(C)NCc1c(C(=O)O)nn(-c2ccc(Cl)cc2)c1-c1ccccc1`: the GI50 in the series with OVCAR-3 (Homo sapiens, OVCAR-3, 48 h) is 652 µM; in the series with NCI-H460 (Homo sapiens, NCI-H460, 48 h) it was more than 652 µM; in the series on MCF7 (Homo sapiens, MCF7, 48 h), 496 µM; in the series on PC-3 (Homo sapiens, PC-3, 48 h) it was more than 652 µM; with HT-29 (Homo sapiens, HT-29, 48 h), more than 652 µM; in the series on U-251 (Homo sapiens, U-251, 48 h) it was more than 652 µM. Further, the 50% growth inhibitory concentration (GI50) in the series with K562 (Homo sapiens, K562, 48 h) is more than 652 µM; in the series with 786-0 (Homo sapiens, 786-0, 48 h) it was more than 652 µM. The 50% growth inhibitory concentration (GI50) at 48 h in [1] was determined as 175 µM.
Consider `CCOC(=O)c1nn(-c2ccc(Cl)cc2)c(-c2ccc(F)cc2)c1CNC(C)(C)C`, for which the GI50 was 159 µM in the series on OVCAR-3 (48 h); 344 µM in the series on NCI-H460 (Homo sapiens, NCI-H460, 48 h); more than 582 µM in the series on MCF7 (Homo sapiens, MCF7, 48 h); 405 µM with PC-3 (Homo sapiens, PC-3, 48 h); 87.1 µM in the series with HT-29 (48 h); 519 µM with U-251 (Homo sapiens, U-251, 48 h). In addition, the GI50 in the series on K562 (48 h) is 78.5 µM; with 786-0 (Homo sapiens, 786-0, 48 h), more than 582 µM; in the series on HaCaT it was 24.7 µM.
In the case of `CC(C)(C)NCc1c(C(=O)O)nn(-c2ccccc2)c1-c1ccc(F)cc1`, the GI50 with NCI-H460 (Homo sapiens, NCI-H460, 48 h) was more than 681 µM; in the series with MCF7 (Homo sapiens, MCF7, 48 h), more than 681 µM; in the series on PC-3 (Homo sapiens, PC-3, 48 h) it was more than 681 µM; in the series on HT-29 (Homo sapiens, HT-29, 48 h), more than 681 µM; in the series on U-251 (Homo sapiens, U-251, 48 h), more than 681 µM; with K562 (Homo sapiens, K562, 48 h) it was more than 681 µM. Moreover, in the series with 786-0 (Homo sapiens, 786-0, 48 h), the GI50 was more than 681 µM. Also, the GI50 at 48 h in [1] is more than 681 µM.
As to `CCOC(=O)c1nn(-c2ccc(Cl)cc2)c(-c2ccc(OC)cc2)c1CNC(C)(C)C`, the GI50 in the series on OVCAR-3 (48 h) is 35.4 µM; with NCI-H460 (48 h) it was 27 µM; in the series with MCF7 (48 h), 238 µM; with PC-3 (48 h), 210 µM; with HT-29 (48 h), 45.3 µM; in the series with U-251 (Homo sapiens, U-251, 48 h), 431 µM. In addition, the concentration for 50% growth inhibition (GI50) in the series on K562 (48 h) was 6.1 µM; in the series on 786-0 (48 h), 119 µM; in the series on HaCaT, 60.1 µM.
As to `CC(C)(C)NCc1c(C(=O)O)nn(-c2ccc(Cl)cc2)c1-c1ccc(F)cc1`, the 50% growth inhibitory concentration (GI50) is 116 µM in the series on OVCAR-3 (Homo sapiens, OVCAR-3, 48 h); more than 623 µM in the series on NCI-H460 (Homo sapiens, NCI-H460, 48 h); 270 µM in the series with MCF7 (Homo sapiens, MCF7, 48 h); more than 623 µM in the series with PC-3 (Homo sapiens, PC-3, 48 h); more than 623 µM with HT-29 (Homo sapiens, HT-29, 48 h); more than 623 µM with U-251 (Homo sapiens, U-251, 48 h). The 50% growth inhibitory concentration (GI50) with K562 (Homo sapiens, K562, 48 h) was more than 623 µM; in the series on 786-0 (Homo sapiens, 786-0, 48 h) it was 204 µM. Also, the concentration for 50% growth inhibition (GI50) at 48 h in [1] was determined as 28.7 µM.
For the molecule `CC(C)(C)NCc1c(C(=O)O)nn(-c2ccccc2)c1-c1ccc(Cl)cc1`, the GI50 in the series with OVCAR-3 (Homo sapiens, OVCAR-3, 48 h) was more than 652 µM; in the series with NCI-H460 (Homo sapiens, NCI-H460, 48 h) it was 70.5 µM; in the series with MCF7 (Homo sapiens, MCF7, 48 h) it was more than 652 µM; in the series on PC-3 (Homo sapiens, PC-3, 48 h), 145 µM; in the series on HT-29 (Homo sapiens, HT-29, 48 h), 353 µM; in the series with U-251 (Homo sapiens, U-251, 48 h) it was more than 652 µM. The GI50 is 364 µM with K562 (Homo sapiens, K562, 48 h) and more than 652 µM with 786-0 (Homo sapiens, 786-0, 48 h). Also, the 50% growth inhibitory concentration (GI50) at 48 h in [1] is more than 652 µM.
For `CC(C)(C)NCc1c(C(=O)O)nn(-c2ccccc2)c1-c1ccc(Br)cc1`, the GI50 is more than 585 µM in the series with OVCAR-3 (Homo sapiens, OVCAR-3, 48 h); more than 585 µM with NCI-H460 (Homo sapiens, NCI-H460, 48 h); 293 µM in the series on MCF7 (Homo sapiens, MCF7, 48 h); more than 585 µM with PC-3 (Homo sapiens, PC-3, 48 h); more than 585 µM in the series with HT-29 (Homo sapiens, HT-29, 48 h); 126 µM in the series on U-251 (Homo sapiens, U-251, 48 h). Also, the concentration for 50% growth inhibition (GI50) with K562 (Homo sapiens, K562, 48 h) was more than 585 µM; in the series on 786-0 (Homo sapiens, 786-0, 48 h), more than 585 µM. Besides, the 50% growth inhibitory concentration (GI50) at 48 h in series [1] came to 366 µM.
`CC(C)(C)NCc1c(C(=O)O)nn(-c2ccc(Cl)cc2)c1-c1ccc(Br)cc1`: the concentration for 50% growth inhibition (GI50) was 513 µM in the series with OVCAR-3 (Homo sapiens, OVCAR-3, 48 h); more than 542 µM with NCI-H460 (Homo sapiens, NCI-H460, 48 h); 221 µM with MCF7 (Homo sapiens, MCF7, 48 h); more than 542 µM in the series with PC-3 (Homo sapiens, PC-3, 48 h); more than 542 µM in the series with HT-29 (Homo sapiens, HT-29, 48 h); more than 542 µM in the series on U-251 (Homo sapiens, U-251, 48 h). The concentration for 50% growth inhibition (GI50) with K562 (Homo sapiens, K562, 48 h) came out at 297 µM; in the series with 786-0 (Homo sapiens, 786-0, 48 h), 542 µM. The GI50 at 48 h in series [1] is more than 542 µM.
`CCOC(=O)c1nn(-c2ccccc2)c(-c2ccc([N+](=O)[O-])cc2)c1CNC(C)(C)C`: the GI50 is 8.78 µM in the series with OVCAR-3 (48 h); 429 µM in the series with NCI-H460 (Homo sapiens, NCI-H460, 48 h); 206 µM in the series on MCF7 (Homo sapiens, MCF7, 48 h); more than 592 µM with PC-3 (48 h); 71.3 µM in the series on HT-29 (48 h); 220 µM in the series on U-251 (48 h). Besides, the figures for the GI50 with K562 (48 h) and with 786-0 (48 h) were 12 µM and 200 µM, respectively. For the same molecule, the 50% growth inhibitory concentration (GI50) at 48 h in [1] came out at 103 µM.
With `COc1cccc2c1C(=O)c1c(O)c3c(c(O)c1C2=O)C[C@@](O)(C(=O)CO)C[C@@H]3O[C@H]1C[C@H](N)[C@H](O)[C@H](C)O1` [DOXORUBICIN], the 50% growth inhibitory concentration (GI50) was 0.09 µM with OVCAR-3 (Homo sapiens, OVCAR-3, 48 h); less than 0.046 µM in the series on NCI-H460 (Homo sapiens, NCI-H460, 48 h); less than 0.046 µM in the series on MCF7 (Homo sapiens, MCF7, 48 h); 0.42 µM with PC-3 (Homo sapiens, PC-3, 48 h); 0.26 µM in the series on HT-29 (Homo sapiens, HT-29, 48 h); less than 0.046 µM in the series with U-251 (Homo sapiens, U-251, 48 h). The 50% growth inhibitory concentration (GI50) with K562 (Homo sapiens, K562, 48 h) stood at 0.06 µM. Further, the GI50 at 48 h in series [1] is less than 0.046 µM.
